The values below come from US11174301B2 (Takeda Pharmaceutical Company Limited, priority 2017, dated 2021).

Format in all cases: in vivo
In assay [1] the test system is C57BL/6J mice. Put plainly: Oral glucose tolerance test (2). The conditions noted are these: 3 nmol/kg, s.c. 72 hours before glucose loading, 30 minutes after oral glucose, control group = 100. As for the experimental part:
Oral Glucose Tolerance Test (2)
An oral glucose tolerance test (OGTT) was carried out using C57BL/6J mice with a […].

Assay [2] deals with ferrets. Briefly: Morphine-induced acute emetic model in ferrets. The note with it: for Ferrets in which the vomiting symptom was observed: 30 nmol/kg s.c., morphine 0.6 mg/kg s.c. 4 hours after administration, monitored 60 minutes, FIG. 6A; for Ferrets in which the vomiting symptom was observed / Vomiting symptom, morphine 120 hours after administration: n=4; for Vomiting symptom, morphine 120 hours after administration: 144 μg/kg (30 nmol/kg) s.c., morphine 0.6 mg/kg s.c. 120 hours after administration, FIG. 6B; for Morphine-induced emesis: 1 nmol/kg s.c. 30 minutes before morphine (0.6 mg/kg, s.c.). As for the experimental part:
4. Effect of Subcutaneously Administered GIP Agonist Analogue in Morphine-Induced Acute Emetic Model
Male ferrets (4-month-old) were repeatedly used until 8-month-old. To evaluate the antiemetic effect, the GIP agonist analogues other than natural human GIP were subcutaneously administered 30 minutes before morphine administration. Natural human GIP was subcutaneously administered 5 minutes before morphine administration.
At the time of each of 4 hours, or 120 hours after administration, 0.6 mg/kg of morphine was subcutaneously administered. Up to 60 minutes after morphine administration, the condition of the ferrets was monitored to record the frequencies and time points of abdominal contraction motions, vomiting behaviors, licking with the tongue, and fidgety behavior occurring.

In assay [3] the test system is ferrets. Put plainly: Cisplatin-induced delayed vomiting model in ferrets. The note with it: monitored 72 hours. On the procedure: Up to 72 hours after cisplatin administration, the condition of the ferrets was monitored to record the frequencies and time points of abdominal contraction motions and vomiting behaviors occurring.
In assay [4] the test system is C57BL/6J mice. Briefly: Oral glucose tolerance test (1). The note with it: 0.03 nmol/kg, s.c. 30 minutes before glucose loading, control group = 100; for Rate of increase in blood glucose level (%) 30 min: 30 minutes after oral glucose; for Rate of increase in blood glucose level (%) 60 min: 60 minutes after oral glucose. As for the experimental part: Oral Glucose Tolerance Test (1)
An oral glucose tolerance test (OGTT) was carried out using C57BL/6J mice with a […].

In assay [5] the test system is ferrets. Put plainly: Cisplatin-induced acute vomiting model in ferrets. As for the experimental part:
Test Example 4: Vomiting Suppression Test in Ferrets
The ferret test was carried out by Nissei Bilis Co., Ltd. (Shiga prefecture, Japan). Cisplatin (10 mg/kg i.p.) was administered to male ferrets (10-week-old, n=6) to induce acute vomiting. […] The frequency of emesis (feeling queasy, vomiting) was monitored over a period of 8 hours after cisplatin administration.
Up to 6 hours after cisplatin administration, the condition of the ferrets was monitored to record the frequencies and time points of abdominal contraction motions and vomiting behaviors occurring.

The test system of assay [6] is male C57BL/6J mice. Briefly: Conditioned taste aversion test in mice (PYY-1119-induced). As for the experimental part:
Test Example 3: Conditioned Taste Aversion Test in Mice (FIG. 1A, FIG. 1B)
Additionally, the test compound or a solvent is subcutaneously administered simultaneously with PYY-1119.
On day 2, only a solvent is administered 10 minutes after presenting tap water.
On day 4, only tap water is presented.
On day 5, a test of selection from the bottles of saccharine water and tap water is carried out and preferential selection of saccharine water is evaluated.

Assay [7] relates to beagles. Put plainly: PYY-1119-induced vomiting in dogs. The note with it: for Frequency of vomiting: 2-hour observation.

In the case of “H-MeTyr-Aib-Glu-Gly-Thr-Iva-Ile-Ser-Asp-Tyr-Ser-Ile-Aib-Leu-Asp-Arg-Lys(Oda-GGGGG-)-Ala-Gln-Aib-Asn-Phe-Val-Asn-Trp-Iva-Leu-Ala-Gln-Arg-Pro-Ser-Ser-Gly-Ala-Pro-Pro-Pro-Ser-NH2 [Compound 349]”, the “Rate of increase in blood glucose level (%) 72 hr” value in assay [1] is 69%. For the same substance, in assay [2], the “Ferrets in which the vomiting symptom was observed” value is “none of the 4 ferrets” and the “Vomiting symptom, morphine 120 hours after administration” value is “suppression of the vomiting symptom was noted”.
Consider “H-MeTyr-Aib-Glu-Gly-Thr-Iva-Ile-Ser-Asp-Tyr-Ser-Ile-Aib-Lys(Eda-GGGGG-)-Asp-Arg-Aib-Ala-Gln-Aib-Asn-Phe-Val-Asn-Trp-Iva-Leu-Ala-Gln-Arg-Pro-Ser-Ser-Gly-Ala-Pro-Pro-Pro-Ser-NH2 [Compound 341]”, for which the “Cisplatin-induced delayed vomiting symptom” value in assay [3] (144 μg/kg (30 nmol/kg) s.c. 34 hours after cisplatin 5 mg/kg i.p.) is reported as “suppression of the vomiting symptom was noted”. The “Rate of increase in blood glucose level (%) 72 hr” value in assay [1] came out at 47%. Besides, in assay [2], the “Ferrets in which the vomiting symptom was observed” value is “none of the 4 ferrets” and the “Vomiting symptom, morphine 120 hours after administration” value is reported as “none of the 4 ferrets”.
Turning to “H-Tyr-Aib-Glu-Gly-Thr-Val-Val-Ser-Leu-Tyr-Ser-Ile-Aib-Leu-Asp-Arg-Gln-Ala-Gln-Aib-Glu-Phe-Val-Arg-Trp-Leu-Leu-Arg-Gly-Gly-Pro-Ser-Ser-Gly-Ala-Pro-Pro-Pro-Ser-Arg-NH2 [Compound 30]”, in assay [4], the “Rate of increase in blood glucose level (%) 30 min” value (shortened to “Rate of increase … (%) 30 min”) is on record as 96% and the “Rate of increase in blood glucose level (%) 60 min” value (“Rate of increase … (%) 60 min” for short) is recorded as 85%.
Consider “H-Tyr-Aib-Glu-Gly-Thr-Val-Val-Ser-Leu-Tyr-Ser-Ile-Aib-Leu-Asp-Lys-Gln-Ala-Gln-Aib-Glu-Phe-Val-Lys-Trp-Aib-Leu-Lys-Gly-Gly-Pro-Ser-Ser-Gly-Ala-Pro-Pro-Pro-Ser-Lys-NH2 [Compound 42]”, for which, in assay [4], the “Rate of increase … (%) 30 min” value stood at 70% and the “Rate of increase … (%) 60 min” value was determined as 43%.
As to “H-Tyr-Aib-Glu-Gly-Thr-Val-Val-Ser-Leu-Tyr-Ser-Ile-Aib-Leu-Asp-Lys-Gln-Ala-Gln-Aib-Glu-Phe-Val-Lys-Trp-Leu-Leu-Lys-Gly-Gly-Pro-Ser-Ser-Gly-Ala-Pro-Pro-Pro-Ser-Lys-NH2 [Compound 6]”, in assay [5] (167 nmol/kg/hour subcutaneously injected from 1 hour before cisplatin (10 mg/kg i.p.), monitored 8 hours, FIG. 2A), the “Cisplatin-induced acute emesis (frequency of emesis)” value is “completely eliminated the acute emesis”. In addition, the PYY-1119-induced taste aversion entry in assay [6] (1, 3, 10, 30 or 100 nmol/kg s.c. simultaneously with PYY-1119 (10 nmol/kg, s.c.), FIG. 1A) is listed as “suppressed the PYY-1119-induced taste aversion in a dose-dependent manner”. Also, the Morphine-induced emesis entry in assay [2] (FIG. 3, FIG. 4) was “completely attenuated”. Moreover, in assay [4], the “Rate of increase … (%) 30 min” value is 56% and the “Rate of increase … (%) 60 min” value was 31%. This substance also had a Frequency of vomiting in assay [7] (150 nmol/kg s.c. 10 minutes before PYY-1119 (10 μg/kg, s.c.), FIG. 7A) of 0 to 3 times.
Turning to “Methyl-Tyr-Aib-Glu-Gly-Thr-Iva-Ile-Ser-Asp-Tyr-Ser-Ile-Aib-Leu-Asp-Arg-Aib-Ala-Gln-Aib-Asn-Phe-Val-Asn-Trp-Iva-Leu-Ala-Gln-Arg-Pro-Ser-Ser-Gly-Ala-Pro-Pro-Pro-Ser-Arg-NH2 [Compound 113]”, in assay [2] (0.1 nmol/kg, FIG. 5), the Morphine-induced emesis result is given as “suppressed the morphine-induced emesis”. Further, in assay [4], the “Rate of increase … (%) 30 min” value amounted to 48% and the “Rate of increase … (%) 60 min” value was determined as 11%.
For “Methyl-Tyr-Aib-Glu-Gly-Thr-Iva-Ile-Ser-Asp-Tyr-Ser-Ile-Ala-Leu-Asp-Arg-Aib-Ala-Gln-Aib-Asn-Phe-Val-Asn-Trp-Leu-Leu-Ala-Gln-Arg-Pro-Ser-Ser-Gly-Ala-Pro-Pro-Pro-Ser-Arg-NH2 [Compound 104]”, the Morphine-induced emesis entry in assay [2] (FIG. 3, FIG. 4) is given as “suppressed the morphine-induced emesis”. In assay [4], the “Rate of increase … (%) 30 min” value was found to be 31% and the “Rate of increase … (%) 60 min” value was 8%.
On to “Methyl-Tyr-Aib-Glu-Gly-Thr-Phe-Ile-Ser-Asp-Tyr-Ser-Ile-Ala-Leu-Asp-Arg-Aib-His-Gln-Aib-Asn-Phe-Val-Asn-Trp-Iva-Leu-Ala-Gln-Arg-Pro-Ser-Ser-Gly-Ala-Pro-Pro-Pro-Ser-Arg-NH2 [Compound 117]”, for which, in assay [3] ([…] (0.3 nmol/kg) or 15 μg/kg (3 nmol/kg) s.c. 34 hours after cisplatin 5 mg/kg i.p., FIG. 2C), the “Latency of the vomiting symptom (time from cisplatin administration to initial occurrence)” value is reported as “delayed”. The “Cisplatin-induced acute vomiting symptom” value in assay [5] (0.15, 0.5, 1.5, 5 and 15 μg/kg (0.03, 0.1, 0.3, 1 and 3 nmol/kg) s.c. 1 hour before cisplatin 10 mg/kg i.p., monitored 6 hours, FIG. 2B) is “suppression of the vomiting symptom was noted in a dose-dependent manner”. Besides, the PYY-1119-induced taste aversion entry in assay [6] (0.003, 0.01, 0.03, 0.1, 0.3 or 1 nmol/kg s.c. simultaneously with PYY-1119 (10 nmol/kg, s.c.), FIG. 1B) is “suppressed the PYY-1119-induced taste aversion in a dose-dependent manner”. For the same substance, the Morphine-induced emesis entry in assay [2] (FIG. 3, FIG. 4) is “suppressed the morphine-induced emesis”. Also, in assay [4], the “Rate of increase … (%) 30 min” value is given as 51% and the “Rate of increase … (%) 60 min” value is recorded as 16%. In assay [7] (10 nmol/kg s.c. 1 hour before PYY-1119 (10 μg/kg, s.c.), FIG. 7B), this substance came in with a Frequency of vomiting of 0 to 3 times. Moreover, the “Average suppression rate of the frequency of vomiting” value in assay [7] (10 nmol/kg s.c. 1 hour before PYY-1119, versus medium group) is on record as 93%.
On to “Methyl-Tyr-Aib-Glu-Gly-Thr-Phe-Ile-Ser-Asp-Tyr-Ser-Ile-Ala-Leu-Asp-Arg-Ile-Ala-Gln-Gln-Asp-Phe-Val-Asn-Trp-Leu-Leu-Ala-Gln-Arg-Pro-Ser-Ser-Gly-Ala-Pro-Pro-Pro-Ser-Arg-NH2 [Compound 59]”, for which, in assay [4], the “Rate of increase … (%) 30 min” value was found to be 41% and the “Rate of increase … (%) 60 min” value is 23%.
